Counter-ions that a name gives are not always drawn.
Experiments:
[1] = tested on: human multiple myeloma cells (MM.1R) transfected with siRNA; experiment: Anti-proliferation assay after siRNA transfection; assay type: cell-based
Protocol: siRNA to adenosine receptor A1, A2A, A3, PDE 2A, PDE 3B, PDE 4B, PDE 4D and PDE 7A, and control siRNA siCON were purchased from Dharmacon. A2B siRNA was purchased from Invitrogen. Electroporations were performed using an Amaxa Nucleoporator (program S-20) and solution V. siRNAs were used at 50 nM. […] RNA was isolated using Qiagen RNAeasy kits, and targets quantified by RT-PCR using gene specific primers purchased from Applied Biosystems.
Cells were added to 384-well plates 24 hours prior to compound addition such that each well contained 2000 cells in 35 μL of media. Master plates were diluted 100× (1 μL into 100 μL) into 384-well dilution plates containing only cell culture media. 4.5 μL from each dilution plate was added to each assay plate for a final dilution of 1000×. To obtain combination data, two master plates were diluted into the assay plates. Following compound addition, assay plates were kept at 37° C. and 5% CO2 for 72 hours. Thirty microliters of ATPLite (Perkin Elmer) at room temperature was then added to each well. Final amount of ATP was quantified within 30 minutes using ATPLite luminescent read-out on an Envision 2103 Multilabel Reader (Perkin Elmer). Measurements were taken at the top of the well using a luminescence aperture and a read time of 0.1 seconds per well.
We also examined the antiproliferative activity of adenosine receptor agonists when the MM cell line MM.1R was transfected with siRNA targeting the A1, A2A, A2B or A3 receptor. Specific gene silencing (A1, A2A, A2B, or A3) was greater than 50% as determined by real time PCR analysis 48 hours post-transfection. At 48 hours post-transfection, cells were exposed to adenosine receptor agonist, incubated an additional 72 hours, and compounds assayed for antiproliferative activity. Representative data is in Table 34. Cells transfected with adenosine receptor siRNA or a control siRNA (scrambled sequences designed so that cellular transcriptsare not targeted) were treated with the adenosine receptor agonist ADAC. […] Similar results were obtained with a second siRNA with specificity for different region of the A2A receptor mRNA, confirming that the reduction in adenosine receptor agonist activity is the result of specific siRNA targeting of the A2A receptor (data not shown).
In our experiments, PDE gene silencing was always greater than 50% as confirmed by real time PCR analysis 48 hours post-transfection. At 48 hours post-transfection, cells were exposed to adenosine receptor agonist and PDE inhibitor, incubated an additional 72 hours, and compounds assayed for antiproliferative activity. Representative data is in Tables 39-45. For each analysis, the activity of cells transfected with an siRNA targeting a specific PDE was compared to cells transfected with a control non-targeting siRNA (siCON).

[2] = target: A2A receptor (Homo sapiens, UniProt P29274); settings: cited from earlier work
[3] = tested on: human multiple myeloma cells (MM.1R); experiment: Anti-proliferation assay (ATPLite, 72 h); assay type: cell-based; parameters: key: S = lnfX·lnfY·ΣIdata(Idata−ILoewe), volume over Loewe additivity
Outline: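 Percent inhibition, calculated against averaged untreated wells, derives from ATPLite luminescence. Dose-response curves spanned 12 concentrations in 2- or 3-fold steps. IL-6 at 10 ng/ml was added to the ANBL6 culture medium.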

[4] = tested on: ANBL6 MM cell line; experiment: Anti-proliferation assay (ATPLite, 72 h); assay type: cell-based, human; settings: CGS-21680 × PDE inhibitor
Protocol: (§1) ANBL6 and INA-6 culture media was also supplemented with 10 ng/ml IL-6. […] MM.1S, MM.1R, OCI-ly10, Karpas 422, and SU-DHL6 cells were provided by the Dana Farber Cancer Institute. H929, RPMI-8226, GA-10, and Farage cells were from ATCC (Cat #'s CCL-155, CRL-9068, CRL-2392 and CRL-2630 respectively). MOLP-8, EJM, KSM-12-PE, and OPM2 were from DSMZ. The ANBL6 and INA-6 cell lines were provided by the M. D. Anderson Cancer Research Center. Compounds were prepared in DMSO at 1000× the highest desired concentration. Master plates were generated consisting of serially diluted compounds in 2- or 3-fold dilutions in 384-well format. For single agent dose response curves, the master plates consisted of 9 individual compounds at 12 concentrations in 2- or 3-fold dilutions. For combination matrices, master plates consisted of individual compounds at 6 or 9 concentrations at 2- or 3-fold dilutions. […] To obtain combination data, two master plates were diluted into the assay plates. […] Thirty microliters of ATPLite (Perkin Elmer) at room temperature was then added to each well. […] Measurements were taken at the top of the well using a luminescence aperture and a read time of 0.1 seconds per well. The percent inhibition (% I) for each well was calculated using the following formula: % I=[(avg. untreated wells-treated well)/(avg. untreated wells)]×100. […] Negative inhibition values result from local variations in treated wells as compared to untreated wells. […] The uncertainty of each fitted parameter was estimated from the range over which the change in reduced chi-squared was less than one, or less than minimum reduced chi-squared if that minimum exceeded one, to allow for underestimated σI errors. Single agent curve data were used to define a dilution series for each compound to be used for combination screening in a 6×6 matrix format. […] The Loewe additivity model was used to quantify combination effects. […] A “Synergy Score” was also used, where the Synergy Score S=log fX log fY ΣIdata(Idata-ILoewe), summed over all non-single-agent concentration pairs, and where log fX,Y is the natural logarithm of the dilution factors used for each single agent. This effectively calculates a volume between the measured and Loewe additive response surfaces, weighted towards high inhibition and corrected for varying dilution factors. An uncertainty σS was calculated for each synergy score, based on the measured errors for the Idata values and standard error propagation.

[5] = tested on: EJM MM cell line; experiment: Anti-proliferation assay (ATPLite, 72 h); assay type: cell-based, human; settings: CGS-21680 × PDE inhibitor
Protocol: as §1

[6] = tested on: INA-6 MM cell line; experiment: Anti-proliferation assay (ATPLite, 72 h); assay type: cell-based, human; settings: CGS-21680 × PDE inhibitor
Protocol: as §1

[7] = tested on: KSM-12-PE MM cell line; experiment: Anti-proliferation assay (ATPLite, 72 h); assay type: cell-based, human; settings: CGS-21680 × PDE inhibitor
Protocol: as §1

[8] = tested on: MOLP-8 MM cell line; experiment: Anti-proliferation assay (ATPLite, 72 h); assay type: cell-based, human; settings: CGS-21680 × PDE inhibitor
Protocol: as §1

[9] = tested on: OPM2 MM cell line; experiment: Anti-proliferation assay (ATPLite, 72 h); assay type: cell-based, human; settings: CGS-21680 × PDE inhibitor
Protocol: as §1

[10] = in combination with adenosine receptor agonist CGS-21680, MM.1R
[11] = in combination with adenosine receptor agonist regadenoson, MM.1R

Sequence of A2A receptor (P29274 whole entry): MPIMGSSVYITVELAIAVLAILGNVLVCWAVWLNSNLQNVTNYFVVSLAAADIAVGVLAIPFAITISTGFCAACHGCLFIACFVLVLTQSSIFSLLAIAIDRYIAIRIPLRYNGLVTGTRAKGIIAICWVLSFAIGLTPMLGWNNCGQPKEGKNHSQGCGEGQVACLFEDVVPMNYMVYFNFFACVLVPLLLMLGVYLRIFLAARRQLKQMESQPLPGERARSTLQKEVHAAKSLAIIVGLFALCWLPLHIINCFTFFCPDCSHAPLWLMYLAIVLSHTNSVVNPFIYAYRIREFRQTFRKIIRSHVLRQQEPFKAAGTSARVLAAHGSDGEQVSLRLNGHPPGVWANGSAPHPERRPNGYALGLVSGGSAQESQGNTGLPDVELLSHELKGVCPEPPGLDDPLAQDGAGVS

Structure (SMILES): NCCNC(=O)Cc1ccc(NC(=O)Cc2ccc(Nc3ncnc4c3ncn4[C@@H]3O[C@H](CO)[C@@H](O)[C@H]3O)cc2)cc1 [ADAC, N-(4-(2-((4-(2-((2-aminoethyl)amino)-2-oxoethyl)phenyl)amino)-2-oxoethyl)phenyl)-Adenosine]
- Antiproliferative activity ([1]; A1 siRNA, ADAC 0.013 μM): 18%
- Antiproliferative activity ([1]; A1 siRNA, ADAC 0.063 μM): 16%
- Antiproliferative activity ([1]; A1 siRNA, ADAC 0.51 μM): 41%
- Antiproliferative activity ([1]; A1 siRNA, ADAC 1 μM): 52%
- Antiproliferative activity ([1]; A2A siRNA, ADAC 0.013 μM): 12%
- Antiproliferative activity ([1]; A2A siRNA, ADAC 0.063 μM): 6.7%
- Antiproliferative activity ([1]; A2A siRNA, ADAC 0.51 μM): 19%
- Antiproliferative activity ([1]; A2A siRNA, ADAC 1 μM): 24%
- Antiproliferative activity ([1]; A2B siRNA, ADAC 0.013 μM): 17%
- Antiproliferative activity ([1]; A2B siRNA, ADAC 0.063 μM): 12%
- Antiproliferative activity ([1]; A2B siRNA, ADAC 0.51 μM): 40%
- Antiproliferative activity ([1]; A2B siRNA, ADAC 1 μM): 53%
- Antiproliferative activity ([1]; A3 siRNA, ADAC 0.013 μM): 22%
- Antiproliferative activity ([1]; A3 siRNA, ADAC 0.063 μM): 18%
- Antiproliferative activity ([1]; A3 siRNA, ADAC 0.51 μM): 46%
- Antiproliferative activity ([1]; A3 siRNA, ADAC 1 μM): 54%
- antiproliferative activity after siRNA silencing ([1]; MM.1R, siRNA that targeted the A2A receptor): reduced
- antiproliferative activity after siRNA silencing ([1]; MM.1R, siRNA to the A1, A2B, or A3 receptor): did not affect ADAC activity
- Antiproliferative activity ([1]; control siRNA, ADAC 0.013 μM): 19%
- Antiproliferative activity ([1]; control siRNA, ADAC 0.063 μM): 15%
- Antiproliferative activity ([1]; control siRNA, ADAC 0.51 μM): 43%
- Antiproliferative activity ([1]; control siRNA, ADAC 1 μM): 54%

Structure (SMILES): CCCCC#Cc1nc(N)c2ncn([C@@H]3O[C@H](C(=O)NCC)[C@@H](O)[C@H]3O)c2n1 [HE-NECA, hexynyladenosine-5′-N-ethylcarboxamide]
- Antiproliferative activity ([1]; A2A siRNA, HE-NECA 0.5 μM): 30%
- Antiproliferative activity ([1]; A2A siRNA, HE-NECA 1 μM): 29%
- Antiproliferative activity ([1]; A2A siRNA, HE-NECA 2 μM): 38%
- Antiproliferative activity ([1]; A2A siRNA, HE-NECA 4.1 μM): 40%
- effect of A2A receptor silencing on agonist activity ([1]; MM.1R, A2A siRNA): strong effect
- Antiproliferative activity ([1]; MM.1R, siRNA targeting PDE 2A, HE-NECA 1.25 nM, R-(−)-Rolipram 0 μM): 36
- Antiproliferative activity ([1]; MM.1R, siRNA targeting PDE 2A, HE-NECA 5 nM, R-(−)-Rolipram 0 μM): 51
- Antiproliferative activity ([1]; MM.1R, siRNA targeting PDE 2A, HE-NECA 10 nM, R-(−)-Rolipram 0 μM): 55
- Antiproliferative activity ([1]; MM.1R, siRNA targeting PDE 2A, HE-NECA 20 nM, R-(−)-Rolipram 0 μM): 68
- Antiproliferative activity ([1]; MM.1R, siRNA targeting PDE 2A, HE-NECA […], R-(−)-Rolipram 0 μM): 48
- Antiproliferative activity ([1]; control siRNA, HE-NECA 0.5 μM): 68%
- Antiproliferative activity ([1]; control siRNA, HE-NECA 1 μM): 68%
- Antiproliferative activity ([1]; control siRNA, HE-NECA 2 μM): 73%
- Antiproliferative activity ([1]; control siRNA, HE-NECA 4.1 μM): 74%
- Ki [2]: ~27 nM

Structure (SMILES): COc1cc(-c2ccc(=O)[nH]n2)ccc1OC(F)F [Zardaverine, 6-(4-(difluoromethoxy)-3-methoxyphenyl)-3(2H)-Pyridazinone]
- synergy score [3, 10]: 2.15
- synergy score [3, 11]: 1.49
- synergy score [4]: 2.11
- synergy score [5]: 0.98
- synergy score [6]: 2.69
- synergy score [7]: 0.49
- synergy score [8]: 3.06
- synergy score [9]: 1.15

Structure (SMILES): COc1cc2c(cc1OC)-c1cc(=Nc3c(C)cc(C)cc3C)n(C)c(=O)n1CC2 [Trequinsin hydrochloride, 2,3,6,7-tetrahydro-9,10-dimethoxy-3-methyl-2-((2,4,6-trimethylphenyl)imino)-4H-pyrimido(6,1-a)isoquinolin-4-one]
- synergy score ([3]; in combination with adenosine receptor agonist ADAC, MM.1R): 6.47
- synergy score [3, 10]: 6.57
- synergy score ([3]; in combination with adenosine receptor agonist HE-NECA, MM.1R): 4.329
- synergy score [3, 11]: 2.8
- synergy score [4]: 4.55
- synergy score [5]: 4.81
- synergy score [6]: 3.93
- synergy score [7]: 2.44
- synergy score [8]: 4.7
- synergy score [9]: 4.74
